In BindingDB's records for doi:10.7270/Q2BV7F1T (Pcmd, 2008):

Molecular target: T1, DNA repair protein RAD51 homolog 1 (Homo sapiens, UniProt Q06609)
T1 sequence (Q06609 whole entry): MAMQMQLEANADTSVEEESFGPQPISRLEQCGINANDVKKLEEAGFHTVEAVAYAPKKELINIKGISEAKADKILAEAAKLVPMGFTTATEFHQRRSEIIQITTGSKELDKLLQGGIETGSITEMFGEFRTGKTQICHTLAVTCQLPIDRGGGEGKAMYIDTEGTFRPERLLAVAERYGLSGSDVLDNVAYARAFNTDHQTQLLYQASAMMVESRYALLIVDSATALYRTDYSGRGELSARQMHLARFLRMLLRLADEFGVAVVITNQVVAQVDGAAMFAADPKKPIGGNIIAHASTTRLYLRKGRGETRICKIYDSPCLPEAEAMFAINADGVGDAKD
Experiment: RAD51 recombination inhibitor potency, dose response, biochemical, homologous recombination, fluorescence (AID 1435)

[1] = inactive by the depositor's call

Structure (SMILES) | IC50 [µM] | IC50 [1] [µM]
Cn1cc(NC(=O)c2cc(NC(=O)c3cc(NC=O)cn3C)cn2C)cc1C(=O)NCCC(=N)N | 6.37 | 
CCOc1ccc(OCC)c(NC(=O)C2CCN(c3ncccn3)CC2)c1 |  | 42.5
CCOc1ccccc1C(=O)Nc1nccs1 | > 85 | 
CC1=CC(C)C(COC(N)=O)(COC(N)=O)C(C)C1 (stereo not given) | > 85 | 
Cc1[nH]nc2c1C(=O)CCC2 | > 85 | 
CCOC(=O)N1CCN(C(=O)CSCC(=O)N=c2sc3ccccc3n2C)CC1 |  | 42.5
O=C(CSc1ncn(-c2ccccc2)n1)c1cccs1 | > 85 | 
CCOC(=O)C(NC(C)=O)(Nc1ccc(S(=O)(=O)Nc2cc(C)on2)cc1)C(F)(F)F (stereo not given) | > 85 | 
CCC(=O)Nc1nc(=S)ss1 | > 85 | 
COc1ccc(S(=O)(=O)NC(C)C(=O)Nc2ccccc2C(F)(F)F)cc1 (stereo not given) | > 85 | 
CCCCNC(=S)NNC(=O)C12CC3CC(CC(C3)C1)C2 | > 85 | 
Cc1cc(O)c(C=O)c2c1C(=O)Oc1c(CO)c(O)c3c(c1O2)C(O)OC3=O (stereo not given) [1,4,10-Trihydroxy-5-hydroxymethyl-8-methyl-3,7-dioxo-1,3-dihydro-7H-benzo[e]furo[3'''',4'''':3,4]benzo[b][1,4]dioxepine-11-carbaldehyde] | 8.02 | 
COc1cc(C)c2c(c1C=O)Oc1c(c(C)c(O)c3c1C(O)OC3=O)OC2=O (stereo not given) [1,4-Dihydroxy-10-methoxy-5,8-dimethyl-3,7-dioxo-1,3-dihydro-7H-benzo[e]furo[3',4':3,4]benzo[b][1,4]dioxepine-11-carbaldehyde] | 8.74 | 
CCOC(=O)C1CCN(C(=O)c2ccco2)CC1 [1-(2-furoyl)isonipecotic acid ethyl ester] | > 85 | 
Cc1ccccc1NC(=O)NCC1CCCO1 (stereo not given) [1-(2-methylphenyl)-3-(oxolan-2-ylmethyl)urea] | > 85 | 
CCOC(=O)C1CCCN(S(=O)(=O)c2ccc(OC)cc2)C1 (stereo not given) [1-(4-methoxyphenyl)sulfonyl-3-piperidinecarboxylic acid ethyl ester] | > 85 | 
O=C(CSc1nnc(Cc2ccccc2)o1)N1CCc2ccccc21 [1-{[(5-benzyl-1,3,4-oxadiazol-2-yl)thio]acetyl}indoline] | > 85 | 
O=c1cc(-c2ccccc2Cl)oc2ccc([N+](=O)[O-])c(O)c12 [2-(2-chlorophenyl)-5-hydroxy-6-nitrochromen-4-one] | > 85 | 
C=CCNc1oc(-c2ccc(OC)cc2)nc1C#N [2-(4-methoxyphenyl)-5-(prop-2-enylamino)-1,3-oxazole-4-carbonitrile] | > 85 | 
CCCCC(Nc1ncnc2ccccc12)C(=O)O (stereo not given) [2-(4-quinazolinylamino)hexanoic acid] |  | 42.5
CCOC(=O)Cn1c(=O)c2c(nc(N3CCCCC3)n2Cc2ccccc2)n(C)c1=O [2-(7-benzyl-2,6-diketo-3-methyl-8-piperidino-purin-1-yl)acetic acid ethyl ester] | > 85 | 1.4
CCN(CC)S(=O)(=O)c1ccc2c(c1)nc(SC(C)C(N)=O)n2-c1ccc(OC)cc1 (stereo not given) [2-[5-(diethylsulfamoyl)-1-(4-methoxyphenyl)benzimidazol-2-yl]sulfanylpropanamide] | 34.8 | 

Structure (SMILES) | IC50 [µM] | IC50 [1] [µM]
O=C(CSCc1ccc(F)cc1)Nc1nc2c(s1)CCCC2 [2-[(4-fluorobenzyl)thio]-N-(4,5,6,7-tetrahydro-1,3-benzothiazol-2-yl)acetamide] | > 85 | 
COc1cc(CN2CCN(c3ccc(C)cc3)CC2)cc([N+](=O)[O-])c1O [2-methoxy-4-[[4-(4-methylphenyl)-1-piperazinyl]methyl]-6-nitrophenol] | > 85 | 
CCOC(=O)C1(C(=O)OCC)CC1c1ccccc1 (stereo not given) [2-phenylcyclopropane-1,1-dicarboxylic acid diethyl ester] | > 85 | 
O=P(OCC(F)(F)C(F)F)(N1CCOCC1)N1CCOCC1 [4-[morpholin-4-yl(2,2,3,3-tetrafluoropropoxy)phosphoryl]morpholine] |  | 42.5
COC(=O)c1cc2n(n1)CCN(Cc1ccc(F)cc1)C2=O [5-(4-fluorobenzyl)-4-keto-6,7-dihydropyrazolo[1,5-a]pyrazine-2-carboxylic acid methyl ester] |  | 42.5
CCCCCOCC1CC(CC(C)N=Nc2nc(-c3ccccc3)cs2)C(=O)O1 (stereo not given) [5-(amoxymethyl)-3-[2-[(4-phenylthiazol-2-yl)hydrazono]propyl]tetrahydrofuran-2-one] | > 85 | 
Cc1cc(C(=O)Nc2cccnc2)cs1 [5-methyl-N-pyridin-3-yl-thiophene-3-carboxamide] | > 85 | 
Cc1cc2nc3c(nc2cc1C)C1(C(=O)O)CCC3(C)C1(C)C (stereo not given) [6,7,12,15,15-pentamethyl-3,10-diazatetracyclo[10.2.1.0~2,11~.0~4,9~]pentadeca-2(11),3,5,7,9-pentaene-1-carboxylic acid] | 37.1 | 
FC(F)(F)c1nnc2ccc(N3CCCC3)nn12 [6-(1-pyrrolidinyl)-3-(trifluoromethyl)[1,2,4]triazolo[4,3-b]pyridazine] | > 85 | 
CCOC(=O)CN1C(=O)N[C@@H](CCc2ccccc2)[C@@H](C(=O)OC)[C@H]1C [CMLD004122] |  | 42.5
O=C(c1ccc2ccccc2n1)N1CCN(c2ccccc2O)CC1 [Glucosamine derivative, 2] | > 85 | 
O=C(NC1CCCCC1)c1cc([N+](=O)[O-])ccc1N1CCCCC1 [Glucosamine derivative, 8] |  | 42.5
COc1cccc2c1C(=O)c1c(O)c3c(c(O)c1C2=O)C[C@@](O)(C(=O)CO)C[C@@H]3O[C@H]1C[C@H](N)[C@H](O)[C@H](C)O1 [MLS000028393] | > 85 | 
CN1CCN(C2=C(Cl)C(=O)N(Cc3ccccc3)C2=O)CC1 [MLS000030834] | > 85 | 
Cc1ccc(/C(C#N)=C\c2cn(C)c3ccccc23)cc1 [MLS000051428] |  | 42.5
O=C(CN1C(=O)C2CC=CCC2C1=O)Nc1nccs1 (stereo not given) [MLS000054855] |  | 42.5
CC(=O)Nn1c(-c2ccccc2)cc2ccccc21 [MLS000082684] |  | 42.5
O=c1[nH]c(N2CCN(Cc3ccc4c(c3)OCO4)CC2)nc2c1CCC2 [MLS000100276] | > 85 | 
COC(=O)CCC(=O)OC1(C)C(=O)C2=CN(C3CC3)C(c3ccc(OC)cc3)=CC2=C(Br)C1=O (stereo not given) [MLS000438679] |  | 42.5
O=C(O)/C=C/c1cn(Cc2ccccc2)nc1-c1ccccc1 [MLS000567315] | > 85 | 
O=C(Nc1ccc(-c2nc3ccccc3o2)cc1)c1ccc2c(c1)OCO2 [N-[4-(1,3-benzoxazol-2-yl)phenyl]-1,3-benzodioxole-5-carboxamide] | > 85 | 
CC1CCCC(C)N1S(=O)(=O)c1ccc(NC(=O)CCn2cnc3ccccc3c2=O)cc1 (stereo not given) [N-[4-(2,6-dimethylpiperidin-1-yl)sulfonylphenyl]-3-(4-oxoquinazolin-3-yl)propanamide] | > 85 | 

Structure (SMILES) | IC50 [µM] | IC50 [1] [µM]
O=S(=O)(Nc1ccc(O)c(CN2CCCCC2)c1)c1ccccc1 [N-[4-oxidanyl-3-(piperidin-1-ylmethyl)phenyl]benzenesulfonamide] | > 85 | 
CC(C)CC(=O)/N=C(\N)Nc1nc2ccccc2s1 [N-[(E)-N''''-(1,3-benzothiazol-2-yl)carbamimidoyl]-3-methylbutanamide] | > 85 | 
Cc1ccc(C(=O)COc2cccc(NC(=O)c3ccco3)c2)cc1 [N-{3-[2-(4-methylphenyl)-2-oxoethoxy]phenyl}-2-furamide] | > 85 | 
CCCOc1ccccc1N=C(NC(=O)COc1ccc(OC)cc1)Nc1nc(C)cc(C)n1 [N-{[(4,6-dimethyl-2-pyrimidinyl)amino][(2-propoxyphenyl)amino]methylene}-2-(4-methoxyphenoxy)acetamide] | > 85 | 
COc1cc(C(=O)O)c2c(c1C)OC(=O)c1c(C)cc(O)c(C=O)c1O2 [NSC-92186] | 5.45 | 
COCCn1c(=NC(=O)CSC(C)=O)sc2cc(F)ccc21 [S-[2-[[6-fluoranyl-3-(2-methoxyethyl)-1,3-benzothiazol-2-ylidene]amino]-2-oxidanylidene-ethyl] ethanethioate] | > 85 | 
Cc1onc(-c2c(Cl)cccc2Cl)c1C(=O)Nn1cnnc1 [SMR000009301] | > 85 | 
CCC1(C)Nc2ccccc2C(=O)N1O (stereo not given) [SMR000024795] | > 85 | 
CN1CCN(C(=O)c2ccc(S(=O)(=O)c3ccc(Br)cc3)cc2)CC1 [SMR000041005] | > 85 | 
Cc1cc(C)n(-c2nc3c(c(=O)[nH]c(=O)n3C)n2Cc2ccc(F)cc2)n1 [SMR000046638] | > 85 | 
CCOC(=O)C1CCN(CC(=O)Nc2c(C(=O)OC)n(C)c3cccc(C)c23)CC1 [SMR000046840] | > 85 | 
O=C(CN1C(=O)c2ccccc2S1(=O)=O)Nc1ccc(S(=O)(=O)N2CCCCC2)cc1 [SMR000074755] |  | 42.5
CCC(CC)c1nnc(NS(=O)(=O)Cc2ccccc2)s1 [SMR000074911] | > 85 | 
OC(COc1ccc2c(c1)CCC2)Cn1cnc2ccccc21 (stereo not given) [SMR000082144] | > 85 | 
O=C(CN(Cc1ccco1)C(=O)CCC(=O)Nc1nccs1)NCc1ccccc1 [SMR000117995] | > 85 | 
CC1(C)CC(=O)C=C(NNC(=O)c2ccccc2O)C1 [SMR000185773] |  | 42.5
O=C1OCC2OC(O)C(O)C(O)C2OC(=O)c2cc(O)c(O)c(O)c2-c2c(O)c(O)c3oc(=O)c4c(c(O)c(O)c5oc(=O)c2c3c54)-c2c1cc(O)c(O)c2O (stereo not given) [SMR000445568] | 0.176 | 
CCOC(=O)c1c(NS(C)(=O)=O)sc2c1CCC(C)C2 (stereo not given) [ethyl 2-(methanesulfonamido)-6-methyl-4,5,6,7-tetrahydro-1-benzothiophene-3-carboxylate] | > 85 | 
COC(=O)c1nc(N)sc1-c1ccccc1 [methyl 2-azanyl-5-phenyl-1,3-thiazole-4-carboxylate] |  | 42.5
COC(=O)C(C=Nc1cccc(Cl)c1C)c1ncc(C(F)(F)F)cc1Cl (stereo not given) [methyl (Z)-3-(3-chloro-2-methylanilino)-2-[3-chloro-5-(trifluoromethyl)-2-pyridinyl]-2-propenoate] | > 85 | 
